Results taken from ChEMBL document CHEMBL5291721, “A preclinical secondary pharmacology resource illuminates target-adverse drug reaction associations of marketed drugs” (Nat Commun, 2023).

What was measured:
B1 bradykinin receptor = biological target: T1, B1 bradykinin receptor (Homo sapiens, UniProt P46663)
T1 sequence (P46663 whole entry): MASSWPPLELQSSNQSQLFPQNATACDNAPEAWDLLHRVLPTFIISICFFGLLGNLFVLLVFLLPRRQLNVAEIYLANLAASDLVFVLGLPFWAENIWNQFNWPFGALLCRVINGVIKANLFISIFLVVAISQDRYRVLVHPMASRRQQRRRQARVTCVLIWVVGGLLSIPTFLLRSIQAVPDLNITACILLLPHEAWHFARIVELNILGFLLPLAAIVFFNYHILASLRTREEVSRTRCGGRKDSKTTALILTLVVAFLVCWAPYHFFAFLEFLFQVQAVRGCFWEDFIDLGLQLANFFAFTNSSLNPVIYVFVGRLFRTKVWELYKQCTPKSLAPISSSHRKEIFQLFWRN

Glucagon receptor = Glucagon receptor (Homo sapiens, UniProt P47871)
Glucagon receptor, sequence (P47871 whole entry): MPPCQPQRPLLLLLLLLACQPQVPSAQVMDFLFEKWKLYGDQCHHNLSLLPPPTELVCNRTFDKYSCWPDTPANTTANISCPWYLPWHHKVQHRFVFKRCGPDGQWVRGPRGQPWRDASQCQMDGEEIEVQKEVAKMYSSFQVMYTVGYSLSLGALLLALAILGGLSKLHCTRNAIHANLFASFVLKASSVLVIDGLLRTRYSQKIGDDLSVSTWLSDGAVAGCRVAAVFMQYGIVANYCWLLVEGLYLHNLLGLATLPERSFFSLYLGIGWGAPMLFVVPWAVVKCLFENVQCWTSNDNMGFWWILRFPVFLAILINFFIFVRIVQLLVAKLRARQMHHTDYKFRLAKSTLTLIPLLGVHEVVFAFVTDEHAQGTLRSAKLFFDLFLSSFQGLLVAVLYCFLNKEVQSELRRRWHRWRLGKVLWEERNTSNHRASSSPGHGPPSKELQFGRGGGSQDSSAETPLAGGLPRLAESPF

[1] = biological target: 5-hydroxytryptamine receptor 2B (Homo sapiens, UniProt P41595)
5-hydroxytryptamine receptor 2B, sequence (P41595 whole entry): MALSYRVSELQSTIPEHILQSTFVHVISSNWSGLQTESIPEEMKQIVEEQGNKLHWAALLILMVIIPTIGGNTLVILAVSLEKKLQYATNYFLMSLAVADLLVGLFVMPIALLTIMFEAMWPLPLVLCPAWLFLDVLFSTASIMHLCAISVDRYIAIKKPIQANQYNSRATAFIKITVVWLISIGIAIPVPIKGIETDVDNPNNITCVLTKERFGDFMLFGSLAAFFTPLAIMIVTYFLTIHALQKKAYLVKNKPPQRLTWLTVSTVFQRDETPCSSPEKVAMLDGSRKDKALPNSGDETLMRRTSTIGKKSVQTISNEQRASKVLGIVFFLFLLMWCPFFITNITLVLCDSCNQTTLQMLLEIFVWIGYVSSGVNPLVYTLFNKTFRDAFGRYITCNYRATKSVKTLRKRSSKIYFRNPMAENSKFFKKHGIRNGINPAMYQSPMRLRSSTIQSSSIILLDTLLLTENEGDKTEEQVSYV

Progesterone receptor = biological target: T2, Progesterone receptor (Homo sapiens, UniProt P06401)
T2 sequence (P06401 whole entry): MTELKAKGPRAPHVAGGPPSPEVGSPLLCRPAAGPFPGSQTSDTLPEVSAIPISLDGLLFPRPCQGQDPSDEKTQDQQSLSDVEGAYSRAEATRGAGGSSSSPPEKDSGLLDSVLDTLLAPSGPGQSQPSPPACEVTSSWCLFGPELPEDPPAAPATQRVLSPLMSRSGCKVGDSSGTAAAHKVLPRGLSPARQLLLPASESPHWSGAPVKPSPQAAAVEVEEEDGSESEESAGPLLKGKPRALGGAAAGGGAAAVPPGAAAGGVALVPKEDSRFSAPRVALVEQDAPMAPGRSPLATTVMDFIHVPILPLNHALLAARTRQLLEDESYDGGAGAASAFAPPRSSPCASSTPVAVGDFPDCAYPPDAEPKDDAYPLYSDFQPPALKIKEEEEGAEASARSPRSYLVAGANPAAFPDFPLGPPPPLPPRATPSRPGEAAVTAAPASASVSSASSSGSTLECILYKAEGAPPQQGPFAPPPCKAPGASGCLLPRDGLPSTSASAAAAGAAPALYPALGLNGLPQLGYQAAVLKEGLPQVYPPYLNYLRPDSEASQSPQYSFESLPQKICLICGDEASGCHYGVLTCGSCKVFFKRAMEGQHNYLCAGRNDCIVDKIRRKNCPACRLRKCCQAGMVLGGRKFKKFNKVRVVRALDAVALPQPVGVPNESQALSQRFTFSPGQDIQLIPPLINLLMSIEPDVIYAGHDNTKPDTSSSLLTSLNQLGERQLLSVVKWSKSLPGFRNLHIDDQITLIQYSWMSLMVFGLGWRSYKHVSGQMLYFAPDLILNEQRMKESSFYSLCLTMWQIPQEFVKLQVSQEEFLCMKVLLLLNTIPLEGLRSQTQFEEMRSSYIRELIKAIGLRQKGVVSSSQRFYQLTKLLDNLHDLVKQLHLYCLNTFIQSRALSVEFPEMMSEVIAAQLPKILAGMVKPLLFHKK

[2] = biological target: T3, 5-hydroxytryptamine receptor 1A (Homo sapiens, UniProt P08908)
T3 sequence (P08908 whole entry): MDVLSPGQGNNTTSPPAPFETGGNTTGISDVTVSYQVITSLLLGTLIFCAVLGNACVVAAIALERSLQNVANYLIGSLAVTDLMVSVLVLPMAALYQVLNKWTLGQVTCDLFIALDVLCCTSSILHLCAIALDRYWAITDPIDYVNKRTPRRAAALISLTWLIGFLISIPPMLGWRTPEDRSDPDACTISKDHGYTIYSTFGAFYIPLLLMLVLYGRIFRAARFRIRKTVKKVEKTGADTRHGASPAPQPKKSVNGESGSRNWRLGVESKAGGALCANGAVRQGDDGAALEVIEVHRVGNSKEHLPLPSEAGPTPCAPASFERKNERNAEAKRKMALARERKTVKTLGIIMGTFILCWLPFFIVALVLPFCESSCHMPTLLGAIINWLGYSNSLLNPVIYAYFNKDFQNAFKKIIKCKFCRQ

[3] = biological target: 5-hydroxytryptamine receptor 2A (Homo sapiens, UniProt P28223)
5-hydroxytryptamine receptor 2A, sequence (P28223 whole entry): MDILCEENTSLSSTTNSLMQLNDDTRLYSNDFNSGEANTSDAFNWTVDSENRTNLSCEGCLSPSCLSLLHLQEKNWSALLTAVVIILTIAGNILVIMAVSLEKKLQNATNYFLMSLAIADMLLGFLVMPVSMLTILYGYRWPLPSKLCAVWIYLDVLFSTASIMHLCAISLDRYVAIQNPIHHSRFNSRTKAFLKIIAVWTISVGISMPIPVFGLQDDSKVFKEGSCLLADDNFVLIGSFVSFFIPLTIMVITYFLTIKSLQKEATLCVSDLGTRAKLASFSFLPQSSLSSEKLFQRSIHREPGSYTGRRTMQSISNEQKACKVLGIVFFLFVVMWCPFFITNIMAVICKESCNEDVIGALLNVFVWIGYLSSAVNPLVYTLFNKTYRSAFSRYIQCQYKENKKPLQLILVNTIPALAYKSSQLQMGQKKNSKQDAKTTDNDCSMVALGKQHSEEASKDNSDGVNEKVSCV

Androgen receptor = biological target: T4, Androgen receptor (Rattus norvegicus, UniProt P15207); assay type: functional
T4 sequence (P15207 whole entry): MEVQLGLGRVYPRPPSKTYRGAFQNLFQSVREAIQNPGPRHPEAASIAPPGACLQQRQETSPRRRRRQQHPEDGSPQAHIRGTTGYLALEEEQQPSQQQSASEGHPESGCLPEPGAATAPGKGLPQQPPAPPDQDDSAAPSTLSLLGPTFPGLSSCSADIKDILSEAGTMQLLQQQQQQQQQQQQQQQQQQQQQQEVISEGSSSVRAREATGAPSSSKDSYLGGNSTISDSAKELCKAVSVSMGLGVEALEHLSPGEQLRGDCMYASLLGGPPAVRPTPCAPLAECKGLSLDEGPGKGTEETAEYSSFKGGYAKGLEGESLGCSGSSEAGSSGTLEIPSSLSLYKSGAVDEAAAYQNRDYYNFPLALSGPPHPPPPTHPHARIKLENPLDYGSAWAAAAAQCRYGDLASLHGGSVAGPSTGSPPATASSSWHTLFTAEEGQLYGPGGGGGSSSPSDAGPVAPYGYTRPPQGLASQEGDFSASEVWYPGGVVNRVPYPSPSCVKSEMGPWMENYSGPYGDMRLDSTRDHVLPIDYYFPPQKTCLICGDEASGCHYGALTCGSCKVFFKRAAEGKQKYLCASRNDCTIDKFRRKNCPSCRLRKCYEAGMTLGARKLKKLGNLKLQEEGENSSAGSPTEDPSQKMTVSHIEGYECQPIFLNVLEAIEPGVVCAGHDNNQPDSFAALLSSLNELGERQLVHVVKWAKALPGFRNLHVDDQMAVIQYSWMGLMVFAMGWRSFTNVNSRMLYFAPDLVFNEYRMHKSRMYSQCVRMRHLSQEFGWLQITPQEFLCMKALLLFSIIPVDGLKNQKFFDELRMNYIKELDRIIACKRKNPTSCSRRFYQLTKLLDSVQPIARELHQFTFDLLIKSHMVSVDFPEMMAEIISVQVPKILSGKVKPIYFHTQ
Further: assay procedure not described here.

Molecule	AC50 (B1 bradykinin receptor) [µM]	AC50 (Glucagon receptor) [µM]	AC50 [1] [µM]	AC50 (Progesterone receptor) [µM]	AC50 [2] [µM]	AC50 [3] [µM]	AC50 (Androgen receptor) [µM]
CN1CCN(C(=O)OC2c3nccnc3C(=O)N2c2ccc(Cl)cn2)CC1 (stereo unspecified) [ZOPICLONE]	> 30	> 30	> 10	> 30	> 10	> 10	
Cc1cc2c(OCC(CNC(C)(C)C)OC(=O)c3ccccc3)cccc2[nH]1 (stereo unspecified) [BOPINDOLOL]					0.0522		
COc1c(C)c2c(c(O)c1C/C=C(\C)CCC(=O)OCCN1CCOCC1)C(=O)OC2 [MYCOPHENOLATE MOFETIL]							> 30
CCNC(C)Cc1cccc(C(F)(F)F)c1 (stereo unspecified) [FENFLURAMINE]	> 30	> 30		> 30			
COc1ccc2c(c1)c(CC(=O)OCC(=O)O)c(C)n2C(=O)c1ccc(Cl)cc1 [ACEMETACIN]							> 30
C#CC1(OC(N)=O)CCCCC1 [ETHINAMATE]						> 10	
CC[C@]1(O)C[C@@H]2CN(CCc3c([nH]c4ccccc34)[C@@](C(=O)OC)(c3cc4c(cc3OC)N(C)[C@H]3[C@@](O)(C(N)=O)[C@H](O)[C@]5(CC)C=CCN6CC[C@]43[C@@H]65)C2)C1 [VINDESINE]							> 30
CC(C)(Oc1ccc(C2CC2(Cl)Cl)cc1)C(=O)O (stereo unspecified) [CIPROFIBRATE]							> 30
CC(Cc1ccccc1)NCCC(c1ccccc1)c1ccccc1 (stereo unspecified) [PRENYLAMINE]				> 30	0.957	3.38	
O=C1CN=C(c2ccccc2)c2cc(Cl)ccc2N1CC(F)(F)F [HALAZEPAM]							> 30
CCC(C(=O)O)c1ccc(CC(C)C)cc1 (stereo unspecified) [BUTIBUFEN]							> 30
[H]/N=C(/N)c1ccc(NCc2nc3cc(C(=O)N(CCC(=O)O)c4ccccn4)ccc3n2C)cc1 [DABIGATRAN]							> 30
CCCCCCCCOc1ccccc1C(=O)Nc1ccc(C(=O)OCC[N+](C)(CC)CC)cc1 [OTILONIUM BROMIDE]			0.712		> 30		
CN[C@@H](C)[C@H](O)c1ccccc1 [EPHEDRINE]	> 30	> 30	> 10	> 30	> 10		
COC(=O)[C@H]1[C@@H](OC(=O)c2ccccc2)C[C@@H]2CC[C@H]1N2C [COCAINE]							> 30
TOCOFERSOLAN							> 30
CC(C)c1c(C(=O)Nc2ccccc2)c(-c2ccccc2)c(-c2ccc(F)cc2)n1CC[C@@H](O)C[C@@H](O)CC(=O)O [ATORVASTATIN]	> 30	> 30		> 30	> 10		
CCN1CCC[C@H]1CNC(=O)c1cc(S(N)(=O)=O)ccc1OC [LEVOSULPIRIDE]				> 30	> 10		
CCCCCCCCCCCC[N+](C)(C)CCOc1ccccc1 [DOMIPHEN]						0.14	
Cc1c(C(=O)Nc2ccc(N3C[C@@H](C)O[C@@H](C)C3)nc2)cccc1-c1ccc(OC(F)(F)F)cc1 [SONIDEGIB]	> 30	> 30	> 10	19.7	> 10	> 10	

Molecule	AC50 (B1 bradykinin receptor) [µM]	AC50 (Glucagon receptor) [µM]	AC50 [1] [µM]	AC50 (Progesterone receptor) [µM]	AC50 [2] [µM]	AC50 [3] [µM]	AC50 (Androgen receptor) [µM]
COc1ccc2cccc(CCNC(C)=O)c2c1 [AGOMELATINE]	> 30	> 30	0.879	> 30	> 10		
COc1ccc(C(=O)N2CCN(c3ccc4c(c3)CCC(=O)N4)CC2)cc1OC [VESNARINONE]							2.5
CCN(CC)CCOC(=O)c1ccc(N)cc1 [PROCAINE]				> 30	> 10		
C1COC(NC(C2CC2)C2CC2)=N1 [RILMENIDINE]				> 30	20.5	> 10	
CN1CCc2cccc3c2[C@H]1Cc1ccc(O)c(O)c1-3 [APOMORPHINE]	> 30	> 30	1.27	26		0.964	
Cc1cc(-c2ccccc2)nnc1NCCN1CCOCC1 [MINAPRINE]	> 30	> 30	1.4	> 30	> 10	> 10	
CN(C)C(=O)OC1N=C(c2ccccc2)c2cc(Cl)ccc2N(C)C1=O (stereo unspecified) [CAMAZEPAM]	> 30	> 30	> 10	> 30	> 10	> 10	
CN1CC(=O)N2[C@H](c3ccc4c(c3)OCO4)c3[nH]c4ccccc4c3C[C@@H]2C1=O				> 30		> 10	
Cc1nc2ccc(CN(C)c3ccc(C(=O)N[C@@H](CCC(=O)O)C(=O)O)s3)cc2c(=O)[nH]1 [RALTITREXED]							> 30
O=C1NCCN1CCN1CCC(c2cn(-c3ccc(F)cc3)c3ccc(Cl)cc23)CC1 [SERTINDOLE]			0.012				> 30
Cc1ccc(-c2nc3ccc(C)cn3c2CC(=O)N(C)C)cc1 [ZOLPIDEM]	> 30	> 30	> 10	> 30	> 10	> 10	
NC(=O)C[S+]([O-])C(c1ccccc1)c1ccccc1 (stereo unspecified) [MODAFINIL]	> 30	> 30	> 10	> 30	> 10		
O=C(OCCN1CCOCC1)c1cccnc1Nc1cccc(C(F)(F)F)c1 [MORNIFLUMATE]							> 30
C1=Cc2cccc(OCC3CNCCO3)c2C1 (stereo unspecified) [INDELOXAZINE]							> 30
CCOc1cc(N)c([N+](=O)[O-])cc1C(=O)NC1CCN(CC2CC=CCC2)CC1 (stereo unspecified) [CINITAPRIDE]			0.0023			0.009	> 30
O=C(O)CCCc1ccccc1 [PHENYLBUTANOIC ACID]	> 10	> 30	> 10	> 30	> 10	> 10	
CCCCN1CCCCC1C(=O)Nc1c(C)cccc1C (stereo unspecified) [BUPIVACAINE]							> 30
CCCCCCC(C)(C)c1cc(O)c2c(c1)OC(C)(C)C1CCC(=O)CC21 (stereo unspecified) [NABILONE]							> 30
NC(CO)C(=O)NNCc1ccc(O)c(O)c1O (stereo unspecified) [BENSERAZIDE]	> 30	> 30	> 10	> 30	> 10	> 10	
